This is an account of results in patent US6187772A, “Pyrroloazepine compounds” (Suntory Limited, priority 1997, dated 2001).

The target of one experiment is serotonin (5-HT) (Cavia porcellus, UniProt A0A286Y537). Description: Anti-serotonin (5-HT) action (contraction of guinea pig superior mesenteric artery induced by serotonin). The format is cell-based, Hartley male guinea pig. As to conditions: contraction induced by 10^-5 M 5-HT = 100%, helical superior mesenteric artery preparation, Tyrode solution, 37° C; for remaining activity at 1 µM: test drug 10^-6 M, read-out: Anti 5-HT action (% of Control), 10^-6 M; for remaining activity at 0.1 µM: test drug 10^-7 M, read-out: Anti 5-HT action (% of Control), 10^-7 M. Here is the method:
(§1) With respect to the compounds of the present invention, their anti-α1 action and anti-serotonin (5-HT) action were investigated by the methods which will be described below.
(2) Anti-serotonin (5-HT) action
A preparation cut in a helical form was suspended under restomg tension of 0.3 g in a Magnus cylinder filled with the Tyrode solution which had been aerated with a gas mixture of 95% O2 and 5% CO2 and maintained at 37° C. Using an isometric transducer ("UL-10", manufactured by SHINKOH K.K.) and a pressure preamplifier ("DSA-605A", manufactured by SHINKOH K.K.), variations in tension were measured. The isometric tensions were recorded on a pen-writing recorder ("VP-6537A", manufactured by NATIONAL K.K.). Taking the contraction induced by 10^-5 M serotonin (5-HT) as 100%, the percent contractions by 10^-5 M 5-HT in the presence of each test drug at 10^-8 M, 10^-7 M and 10^-6 M were determined as anti-5-HT action.

The subject of the next experiment is α1. Description: Anti-α1 action (contraction of guinea pig thoracic aorta induced by norepinephrine). Format: cell-based, Hartley male guinea pig. The conditions noted are these: tonic contraction induced by 10^-5 M norepinephrine = 100%, helical thoracic aorta preparation, Tyrode solution, 37° C; for Anti α1 action (% of Control), 10^-7 M: test drug 10^-7 M, 0.1 µM; for Anti α1 action (% of Control), 10^-8 M: test drug 10^-8 M, 0.01 µM. The procedure: as §1
The thoracic aorta of each Hartley male guinea pig (body weight: 300-500 g) was excised. A preparation cut in a helical form was suspended under 1 g load in a Magnus cylinder filled with the Tyrode solution which had been aerated with a gas mixture of 95% O2 and 5% CO2 and maintained at 37° C. Using an isometric transducer ("TB-612J", manufactured by Nihon Kohden Corporation) and a pressure preamplifier ("AP-620G", manufactured by Nihon Kohden Corporation), variations in tension were measured. The isometric tensions were recorded on a thermal pen-writing recorder ("WT-647G", manufactured by Nihon Kohden Corporation). Taking the tonic contraction induced by 10^-5 M norepinephrine (NE) as 100%, the percent contractions upon addition of each test drug at 10^-8 M and 10^-7 M were determined as anti-α1 action.

Sequence of serotonin (5-HT) (A0A286Y537 1-470): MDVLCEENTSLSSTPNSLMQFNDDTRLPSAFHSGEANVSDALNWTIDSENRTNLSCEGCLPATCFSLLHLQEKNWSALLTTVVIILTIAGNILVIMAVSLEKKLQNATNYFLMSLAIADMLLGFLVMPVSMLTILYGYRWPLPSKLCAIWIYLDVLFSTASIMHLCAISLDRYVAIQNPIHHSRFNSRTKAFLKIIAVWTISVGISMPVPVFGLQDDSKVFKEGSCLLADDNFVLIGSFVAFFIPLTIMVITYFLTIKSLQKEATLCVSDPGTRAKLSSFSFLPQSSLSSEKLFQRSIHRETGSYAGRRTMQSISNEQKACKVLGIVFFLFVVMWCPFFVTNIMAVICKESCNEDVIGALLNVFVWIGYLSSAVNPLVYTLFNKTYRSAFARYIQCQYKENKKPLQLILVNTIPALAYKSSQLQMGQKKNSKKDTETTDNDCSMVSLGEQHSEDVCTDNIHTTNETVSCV

With `CN1CCC(=O)c2c(ccn2CCCCN2CCC(C(=O)c3ccc(F)cc3)CC2)C1=O` [Compound No. 15, 1-[4-[4-(4-fluorobenzoyl)piperidino]-butyl]-5-methyl-1,4,5,6,7,8-hexahydropyrrolo[3,2-c]azepine-4,8-dione], on serotonin (5-HT), the remaining activity at 1 µM is 26.6% and the remaining activity at 0.1 µM was 75.3%. For the same compound, in the experiment on α1, the “Anti α1 action (% of Control), 10^-7 M” value is 35.4 % of Control and the “Anti α1 action (% of Control), 10^-8 M” value is given as 59.9 % of Control.

With `CN1CCC(=O)c2c(ccn2CCCCN2CCC(c3noc4cc(F)ccc34)CC2)C1=O` [Compound No. 17, 1-[4-[4-(6-fluoro-1,2-benzisoxazol-3-yl)piperidino]butyl]-5-methyl-1,4,5,6,7,8-hexahydropyrrolo[3,2-c]azepine-4,8-dione], on serotonin (5-HT), the remaining activity at 1 µM came to 8.9% and the remaining activity at 0.1 µM was 55.2%. The remaining activity at 0.01 µM on serotonin (5-HT) (test drug 10^-8 M, read-out: Anti 5-HT action (% of Control), 10^-8 M) worked out at 80.7%. Moreover, in the experiment on α1, the “Anti α1 action (% of Control), 10^-7 M” value is 14.0 % of Control and the “Anti α1 action (% of Control), 10^-8 M” value is 27.8 % of Control.

On to `CN1CCC(=O)c2cn(CCCCN3CCC(C(=O)c4ccc(F)cc4)CC3)cc2C1=O` [Compound No. 18, 2-[4-[4-(4-fluorobenzoyl)piperidino]-butyl]-5-methyl-2,4,5,6,7,8-hexahydropyrrolo[3,4-c]azepine-4,8-dione], for which, at serotonin (5-HT), the remaining activity at 1 µM was 25.3% and the remaining activity at 0.1 µM was 81.7%. In the experiment on α1, the “Anti α1 action (% of Control), 10^-7 M” value is given as 37.3 % of Control and the “Anti α1 action (% of Control), 10^-8 M” value is 76.0 % of Control.

Take `CN1CCC(=NO)c2cn(CCCCN3CCC(C(=O)c4ccc(F)cc4)CC3)cc2C1=O` [Compound No. 21, 2-[4-[4-(4-fluorobenzoyl)piperidino]-butyl]-8-hydroxyimino-5-methyl-2,4,5,6,7,8-hexahydropyrrolo[3,4-c]azepin-4-one]: at serotonin (5-HT), the remaining activity at 1 µM came to 24.9% and the remaining activity at 0.1 µM turned out to be 85.5%. In the experiment on α1, the “Anti α1 action (% of Control), 10^-7 M” value is 36.9 % of Control and the “Anti α1 action (% of Control), 10^-8 M” value is listed as 69.7 % of Control.
